Assay results from patent EP0117429A1, “Phosphorous containing compounds as inhibitors of enkephalinases” (SCHERING CORPORATION, priority 1983, dated 1984).
Structures can show the parent of a compound that is named as a salt.

How the values were obtained:
[1] = target: T1, enkephalinase A (Rattus norvegicus, UniProt P07861); assay: Enkephalinase A inhibition, radiometric assay with 3H-Met5-ENK substrate and TLC separation; format: biochemical, Sprague-Dawley rats; settings: enkephalinase A fraction from rat brain membranes; substrate 3H-Met5-ENK 40 nM; 90 minutes at 37°C; pH 7.4
T1 construct: from tissue; host or cells: rat brain (minus cerebellum), Triton X-100 solubilised membranes, DEAE Sephacel fraction
T1 sequence (P07861 1-750): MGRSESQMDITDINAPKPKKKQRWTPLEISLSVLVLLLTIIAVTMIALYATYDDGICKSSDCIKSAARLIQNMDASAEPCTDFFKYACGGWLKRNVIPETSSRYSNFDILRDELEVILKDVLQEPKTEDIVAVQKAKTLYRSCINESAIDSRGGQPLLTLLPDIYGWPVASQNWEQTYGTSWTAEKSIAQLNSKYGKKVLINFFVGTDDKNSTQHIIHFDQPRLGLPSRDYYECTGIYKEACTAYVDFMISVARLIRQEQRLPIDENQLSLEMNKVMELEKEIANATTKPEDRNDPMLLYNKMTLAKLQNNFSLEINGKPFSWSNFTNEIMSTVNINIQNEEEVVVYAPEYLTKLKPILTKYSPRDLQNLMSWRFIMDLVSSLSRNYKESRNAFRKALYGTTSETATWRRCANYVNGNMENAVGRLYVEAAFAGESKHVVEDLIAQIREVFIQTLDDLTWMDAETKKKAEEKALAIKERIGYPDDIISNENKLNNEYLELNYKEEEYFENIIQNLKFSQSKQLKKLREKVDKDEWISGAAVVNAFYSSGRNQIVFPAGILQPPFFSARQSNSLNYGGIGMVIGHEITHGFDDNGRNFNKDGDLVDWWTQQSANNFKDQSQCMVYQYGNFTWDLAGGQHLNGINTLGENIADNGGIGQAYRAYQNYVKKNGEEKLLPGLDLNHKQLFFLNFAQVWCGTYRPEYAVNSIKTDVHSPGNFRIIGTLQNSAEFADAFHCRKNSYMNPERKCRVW
Protocol: Enzyme activity was separated by taking the brain tissue (minus cerebellum) from Sprague-Dawley rats and homogenizing it in 30 volumes of 50 mM Tris buffer, pH 7.4, using a Brinkmann Polytron. The resulting homogenate is centrifuged at 50,000 x g for 15 minutes. The pellet, constituting the membrane bound enzyme material, was washed by resuspending it in Tris and re- centrifuging it 4 times.
Following washing, solubilization of the membrane pellet was achieved by incubating it for 45 minutes at 37 °C in the presence of 15 volumes (based on initial brain weight) of 50 mM Tris-l% Triton X-100 buffer, pH 7.4. After centrifugation at 100,000 x g for 60 minutes to remove non-solubilized material, the Triton soluble supernatant was layered on a 1.5 x 30 cm DEAE Sephacel column previously equilibrated with.50 mM Tris-0.1% Triton, pH 7.4. Material was eluted from the column using a 1 liter linear NaCl gradient running from 0.0 to 0.4 M. Effluent was collected in 7 ml fractions, each of which was assayed for enkephalin degrading activity.
Enkephalin degrading activity was monitored using a radiometric assay. The substrate was ^3H-Met5-ENK (50.1 Ci/mmol, New England Nuclear) diluted in 0.05 M Tris buffer, pH 7.4, such that the final reaction mixture concentration was 40 nM. Total reaction mixture volume including enzyme and substrate was 250 µl. Incubation was carried out for 90 minutes at 37°C. To stop the reaction, tubes were transferred to a boiling water bath for 15 minutes.
Assay products were separated form one another using thin layer chromatography. […] Total running time was approximately 17 hours. TLC tanks are gassed with nitrogen prior to starting the run. Following the run, markers are visualized with ninhydrin spray. These spots, along with remaining plate regions, are cut from the plate and the radioactivity corresponding to each monitored using liquid scintillation counting. IC50's are determined using linear regression techniques.

[2] = system: Male CF1 mice; assay: Potentiation of the analgesic effects of DAEAM, mouse tailflick test; format: in vivo; settings: dose at which half the test animals displayed analgesia, DAEAM icv, tailflick latency 30 minutes after DAEAM, cut-off 10 seconds
Protocol: The following test procedure was utilized to assess the noted compounds' potentiation of the analgesic effects of (D-Ala^2-Met^5)-enkephalinamide (DAEAM).
Male CF1 mice (19-23 g) from Charles River Breeding Labs, Mass., were used (N=10/dose or dose combination). […] Tailflick latencies were re-determined 30 minutes later, as this has previously been determined to be the time of peak analgesia for DAEAM, and a cut-off of 10 seconds is employed.

Molecule	IC50 [1]	Oral ED50, in mice [2]
O=C(O)CCNC(=O)C(Cc1ccc(C(F)(F)F)cc1)CP(=O)(O)O (racemic) [R,S, -CF3, -CONH-, -(CH2)2-, -OH, N-[1-Oxo-2-phosphonomethyl-3-(4-trifluoromethyl)phenylpropyl]-β-alanine]	60 nM	
CC(OC(=O)NC(Cc1ccccc1)CP(=O)(O)O)C(=O)O [R,S, -H, -NHCOO-, -C^**H(CH3)-, -OH, 2-[2-phenyl-l-(phosphonomethyl)ethyl]aminocarbonyloxy-propanoic acid]	100 nM	
O=C(O)C(O)CNC(=O)C(Cc1ccccc1)CP(=O)(O)O (centres unmarked) [S, -H, -CONH-, -CH2C^***H(OH)-, -OH, 3-[1-Oxo-3-phenyl-2-(phosphonomethyl)propyl]amino-2-hydroxypropanoic Acid]	25 nM	
O=C(O)CCNC(=O)C(Cc1ccc(-c2ccccc2)cc1)CP(=O)(O)O (racemic) [R,S, -C6H5, -CONH-, -(CH2)2-, -OH, N-[(R,S)-3-(1,1'-Biphenyl-4-yl)-1-oxo-2-(phosphonomethyl)-propyl]-β-alanine]	1.3 nM	
3-[(S) -2- (Diethoxyphosphinyl) methyl -1-oxo-3 -nhenyl- propyl]amino-2-(R,S)-methylpropanoic acid calcium salt [S, -H, -CONH-, -CH2C^**H(CH3)-, -OH]	25.5 nM	20 mg/kg
O=C(CCNC(=O)[C@H](Cc1ccccc1)CP(=O)(O)O)OCCOc1ccccc1 [S, -H, -CONH-, -(CH2)2-, -O(CH2)2OC6H5, N-[(S)-1-Oxo-3-phenyl-2-(phosphonomethyl)propyl)-β-alanine 2-phenoxyethyl ester]	210 nM	
CCOC(=O)CCNC(=O)[C@H](Cc1ccccc1)CP(=O)(O)O [S, -H, -CONH-, -(CH2)2-, -OC2H5, N-[(S)=1-Oxo-3-phenyl-2-(phostphonomethyl)propyl] -β-alanine ethyl ester calcium salt]	60 nM	2.5 mg/kg
N-L(S)-1-Oxo-3-phenyl-2-(phosphonomethyl)propyl]-β-alanine calcium salt [S, -H, -CONH-, -(CH2)2-, -OH]	19 nM	3 mg/kg
O=C(O)CCNC(=O)[C@H](Cc1ccc(Cl)cc1)CP(=O)(O)O [S, -Cl, -CONH-, -(CH2)2-, -OH, N-[3-(a-chloro)phenyl-1-oxo-2-(phosphonomethyl)propyl]-B-alanine]	11 nM	25 mg/kg
CCOC(=O)c1ccc(NC(=O)C(Cc2ccccc2)CP(=O)(O)O)cc1 (centres unmarked) [S, -H, -CONH-, p-C6H4-, -OC2H5, 4-[1-oxo-3-phenyl-2-(phosphonomethyl)propyl]aminobenzoic acid ethyl ester]	63 nM	
CCOC(=O)CCNC(=O)C(Cc1ccc(C(F)(F)F)cc1)CP(=O)(O)O (racemic) [R,S, -CF3, -CONH-, -(CH2)2-, -OC2H5]	2200 nM	
O=C(O)CCNC(=O)[C@@H](Cc1ccccc1)CP(=O)(O)O [R, -H, -CONH-, -(CH2)2-, -OH, N-[(R)-1-oxo-3-phenyl-2-)phosphonomethyl)propyl] -(β-alanine calcium salt]	600 nM	
O=C(O)CCCNC(=O)C(Cc1ccccc1)CP(=O)(O)O (centres unmarked) [S, -H, -CONH-, -(CH2)3-, -OH, 4-[1-oxo-3-phenyl-2-(phosphonomethyl)propyl]amino-butanoic acid]	80 nM	
